# Data published in US20100063047A1 (KALYPSYS, INC., priority 2008, published 2010).
# Assays:
# human H1 = molecular target: T1, human H1 (Homo sapiens, UniProt P35367); assay: In vitro histamine H1 receptor cell-based aequorin bioluminescence antagonist assay; conditions: CHO-K1 cells expressing human H1 and aequorin; histamine at EC80; read-out: H1 Antagonist EC50
# T1 construct: host or cells: CHO-K1, also expressing mitochondrion-targeted aequorin
# Procedure, shortened: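 CHO-K1 cells stably expressing human H1 or H4 plus mitochondrial aequorin (H4 also with Gα16), loaded with 5 μM coelenterazine-h for 4 h at ~21 °C. Compounds preincubated 15 min at room temperature, then histamine at EC80 added.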
# human H4 = molecular target: T2, human H4 (Homo sapiens, UniProt Q9H3N8); assay: In vitro histamine H4 receptor cell-based aequorin bioluminescence antagonist assay; conditions: CHO-K1 cells expressing human H4, aequorin and Gα16; histamine at EC80
# T2 construct: host or cells: CHO-K1, also expressing mitochondrion-targeted aequorin and human Gα16
# Procedure: In vitro Histamine Receptor Cell-Based Assays
# The cell-based assays utilize an aequorin dependent bioluminescence signal. Doubly-transfected, stable CHO—K1 cell lines expressing human H1 or H4, mitochondrion-targeted aequorin, and (H4 only) human G protein Gα16 are obtained from Perkin-Elmer. Cells are maintained in F12 (Ham's) growth medium, containing 10% (vol./vol.) fetal bovine serum, penicillin (100 IU/mL), streptomycin (0.1 mg/mL), zeocin (0.25 mg/mL) and geneticin (0.40 mg/mL). Cell media components are from Invitrogen, Inc. One day prior to assay, the growth medium is replaced with the same, excluding zeocin and geneticin.
# For assay preparation, growth medium is aspirated, and cells are rinsed with calcium-free, magnesium-free phosphate-buffered saline, followed by two to three minute incubation in Versene (Invitrogen, Inc.) at 37° C. Assay medium (DMEM:F12 [50:50], phenol-red free, containing 1 mg/mL protease-free bovine serum albumin) is added to collect the released cells, which are then centrifuged. The cell pellet is re-suspended in assay medium, centrifuged once more, and re-suspended in assay medium to a final density of 5×10^6 cells/mL. Coelenterazine-h dye (500 μM in ethanol) is added to a final concentration of 5 μM, and mixed immediately. The conical tube containing the cells is then wrapped with foil to protect the light-sensitive dye. The cells are incubated for four hours further at room temperature (approximately 21° C.) with end-over-end rotation to keep them in suspension.
# Just before assay, the dye-loaded cells are diluted to 0.75×10^6 cells/mL (H1 receptor) or 1.5×10^6 cells/mL (H4 receptor) with additional assay medium. Cells are dispensed to 1536 well micro-titer plates at 3 μL/well. To assay receptor antagonism, 60 nl of 100× concentration test compounds in 100% dimethyl sulfoxide (DMSO) are dispensed to the wells, one compound per well, by passive pin transfer, and the plates are incubated for 15 minutes at room temperature. […] The pipette dispenses 3 μL/well of agonist (histamine, at twice the final concentration, where final concentration is a previously determined EC80) in assay medium, with concurrent bioluminescence detection. Agonist activity of test compounds is excluded by separate assays that measure response to test compounds immediately, without added histamine agonist.
# CCD image capture on the Lumilux includes a 5 second baseline read prior to agonist addition, and generally a 40 second read per plate after agonist addition. A decrease in bioluminescence signal (measured either as area-under-the-curve, or maximum signal amplitude minus minimum signal amplitude) correlates with receptor antagonism in a dose dependent manner. The negative control is DMSO lacking any test compound. For antagonist assays, the positive controls are diphenhydramine (2-Diphenylmethoxy-N,N-dimethylethylamine, 10 μM final concentration, H1 receptor) or JNJ7777120 (1-[(5-Chloro-1H-indol-2-yl)carbonyl]-4-methyl-piperazine, 10 μM final concentration, H4 receptor). Efficacy is measured as a percentage of positive control activity.
# T1 sequence (P35367 whole entry): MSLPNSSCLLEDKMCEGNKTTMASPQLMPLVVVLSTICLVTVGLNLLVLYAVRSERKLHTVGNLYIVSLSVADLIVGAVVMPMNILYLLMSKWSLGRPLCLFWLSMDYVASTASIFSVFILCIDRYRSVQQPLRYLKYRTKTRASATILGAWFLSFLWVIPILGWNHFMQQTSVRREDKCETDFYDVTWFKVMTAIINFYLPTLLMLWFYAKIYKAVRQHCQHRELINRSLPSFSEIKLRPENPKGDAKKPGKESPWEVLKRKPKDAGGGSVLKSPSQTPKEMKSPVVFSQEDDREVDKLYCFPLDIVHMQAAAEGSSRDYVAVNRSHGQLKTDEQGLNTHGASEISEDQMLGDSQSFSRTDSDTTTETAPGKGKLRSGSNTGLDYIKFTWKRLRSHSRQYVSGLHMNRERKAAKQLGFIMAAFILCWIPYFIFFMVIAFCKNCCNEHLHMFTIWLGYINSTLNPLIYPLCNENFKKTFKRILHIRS
Structure (SMILES),EC50 (human H1) [µM],EC50 (human H4) [µM]
"COc1ccccc1N1CCN(c2ncnc3scc(C)c23)CC1 [Example 262, 1-(2-methoxyphenyl)-4-{5-methylthieno[2,3-d]pyrimidin-4-yl}piperazine]",> 10,> 10
"CCN(CCO)c1ncnc2scc(C)c12 [Example 188, 2-[ethyl({5-methylthieno[2,3-d]pyrimidin-4-yl})amino]ethan-1-ol]",> 10,> 10
"COc1cc2c(cc1OC)CN(c1ncnc3scc(C)c13)CC2 [Example 286, 6,7-dimethoxy-2-{5-methylthieno[2,3-d]pyrimidin-4-yl}-1,2,3,4-tetrahydroisoquinoline]",> 10,> 10
"COc1ccc(N2CCN(c3ncnc4scc(C)c34)CC2)cc1OC [Example 4, 4-(4-(3,4-dimethoxyphenyl)piperazin-1-yl)-5-methylthieno[2,3-d]pyrimidine]",> 10,> 10
"Cc1csc2ncnc(C(=O)NCc3ccc(Cl)cc3)c12 [Example 34, N-(4-chlorobenzyl)-5-methylthieno[2,3-d]pyrimidine-4-carboxamide]",> 10,> 10
"Cc1csc2ncnc(N(CCO)CCO)c12 [Example 198, 2-[(2-hydroxyethyl)({5-methylthieno[2,3-d]pyrimidin-4-yl})amino]ethan-1-ol]",> 10,> 10
"Cc1csc2ncnc(N3C(C)CCCC3C)c12 (stereo not drawn) [Example 201, 2,6-dimethyl-1-{5-methylthieno[2,3-d]pyrimidin-4-yl}piperidine]",> 10,> 10
"Cc1csc2ncnc(NC3CONC3=O)c12 (stereo not drawn) [Example 80, 4-({5-methylthieno[2,3-d]pyrimidin-4-yl}amino)-1,2-oxazolidin-3-one]",> 10,> 10
"Cc1csc2ncnc(N3CCCC3CO)c12 (stereo not drawn) [Example 193, (1-{5-methylthieno[2,3-d]pyrimidin-4-yl}pyrrolidin-2-yl)methanol]",> 10,> 10
"Cc1csc2ncnc(N(C)C(Cc3ccccc3)c3ccccc3)c12 (stereo not drawn) [Example 278, N-(1,2-diphenylethyl)-N,5-dimethylthieno[2,3-d]pyrimidin-4-amine]",> 10,> 10
"Cc1csc2ncnc(N3CCC(C)CC3)c12 [Example 191, 4-methyl-1-{5-methylthieno[2,3-d]pyrimidin-4-yl}piperidine]",> 10,> 10
"Cc1csc2ncnc(CC(=O)Nc3ccc(Cl)cc3)c12 [Example 33, N-(4-chlorophenyl)-2-(5-methylthieno[2,3-d]pyrimidin-4-yl)acetamide]",> 10,> 10
"COc1ccc(C(=O)CNc2ncnc3scc(C)c23)cc1 [Example 174, 1-(4-methoxyphenyl)-2-({5-methylthieno[2,3-d]pyrimidin-4-yl}amino)ethan-1-one]",> 10,> 10
"CC(=O)N[C@H]1CCN(c2ncnc3scc(C)c23)C1 [Example 212, N-[(3S)-1-{5-methylthieno[2,3-d]pyrimidin-4-yl}pyrrolidin-3-yl]acetamide]",> 10,> 10
"Cc1csc2ncnc(N3CCN(c4ccc(F)cc4)CC3)c12 [Example 246, 1-(4-fluorophenyl)-4-{5-methylthieno[2,3-d]pyrimidin-4-yl}piperazine]",> 10,> 10
"Cc1csc2ncnc(NCC(=O)c3ccccc3)c12 [Example 161, 2-({5-methylthieno[2,3-d]pyrimidin-4-yl}amino)-1-phenylethan-1-one]",> 10,> 10
"Clc1ccc(CCNc2ncnc3[nH]ccc23)cc1 [Example 28, N-(4-chlorophenethyl)-7H-pyrrolo[2,3-d]pyrimidin-4-amine]",> 10,> 10
"CNc1ncnc2scc(C)c12 [Example 49, N,5-dimethylthieno[2,3-d]pyrimidin-4-amine]",> 10,> 10
"C#CCNc1ncnc2scc(C)c12 [Example 51, 5-methyl-N-(prop-2-yn-1-yl)thieno[2,3-d]pyrimidin-4-amine]",> 10,> 10
"Cc1csc2ncnc(N(Cc3ccccc3)C(C)C)c12 [Example 225, N-benzyl-5-methyl-N-(propan-2-yl)thieno[2,3-d]pyrimidin-4-amine]",> 10,> 10
"Cc1csc2ncnc(NC(C)Cc3ccncc3)c12 (stereo not drawn) [Example 120, 5-methyl-N-[1-(pyridin-4-yl)propan-2-yl]thieno[2,3-d]pyrimidin-4-amine]",> 10,> 10

# More lines, now with the values ahead:
EC50 (human H1) [µM],EC50 (human H4) [µM],Structure (SMILES)
> 10,> 10,"Cc1csc2ncnc(NCCC#N)c12 [Example 57, 3-({5-methylthieno[2,3-d]pyrimidin-4-yl}amino)propanenitrile]"
> 10,> 10,"Cc1csc2ncnc(N(C)Cc3ccccc3)c12 [Example 209, N-benzyl-N,5-dimethylthieno[2,3-d]pyrimidin-4-amine]"
> 10,> 10,"Cc1csc2ncnc(N(C)CC(C)C)c12 [Example 185, N,5-dimethyl-N-(2-methylpropyl)thieno[2,3-d]pyrimidin-4-amine]"
> 10,> 10,"Cc1cccc(N2CCN(c3ncnc4scc(C)c34)CC2)c1C [Example 254, 1-(2,3-dimethylphenyl)-4-{5-methylthieno[2,3-d]pyrimidin-4-yl}piperazine]"
> 10,> 10,"Cc1csc2ncnc(N3CCCC4CCCCC43)c12 (stereo not drawn) [Example 222, 1-{5-methylthieno[2,3-d]pyrimidin-4-yl}-decahydroquinoline]"
> 10,> 10,"Cc1csc2ncnc(N3CCN(c4ccccn4)CC3)c12 [Example 234, 1-{5-methylthieno[2,3-d]pyrimidin-4-yl}-4-(pyridin-2-yl)piperazine]"
> 10,> 10,"Cc1csc2ncnc(NCCO)c12 [Example 56, 2-({5-methylthieno[2,3-d]pyrimidin-4-yl}amino)ethan-1-ol]"
> 10,> 10,"Cc1csc2ncnc(NCc3ccccc3OC(F)(F)F)c12 [Example 172, 5-methyl-N-{[2-(trifluoromethoxy)phenyl]methyl}thieno[2,3-d]pyrimidin-4-amine]"
> 10,> 10,"Cc1csc2ncnc(N3CCN(c4ccccc4Cl)CC3)c12 [Example 3, 4-(4-(2-chlorophenyl)piperazin-1-yl)-5-methylthieno[2,3-d]pyrimidine]"
> 10,> 10,"CCCNc1ncnc2scc(C)c12 [Example 54, 5-methyl-N-propylthieno[2,3-d]pyrimidin-4-amine]"
> 10,> 10,"CCN(C)c1ncnc2scc(C)c12 [Example 179, N-ethyl-N,5-dimethylthieno[2,3-d]pyrimidin-4-amine]"
> 10,> 10,"Cc1csc2ncnc(CCNc3ccc(Cl)cc3)c12 [Example 32, 4-chloro-N-(2-(5-methylthieno[2,3-d]pyrimidin-4-yl)ethyl)aniline]"
> 10,> 10,"Cc1csc2ncnc(NCCCn3ccnc3)c12 [Example 105, N-[3-(1H-imidazol-1-yl)propyl]-5-methylthieno[2,3-d]pyrimidin-4-amine]"
> 10,> 10,"CCCN(CCC)c1ncnc2scc(C)c12 [Example 196, 5-methyl-N,N-dipropylthieno[2,3-d]pyrimidin-4-amine]"
> 10,> 10,"Cc1ccc(N2CCN(c3ncnc4scc(C)c34)CC2)cc1C [Example 257, 1-(3,4-dimethylphenyl)-4-{5-methylthieno[2,3-d]pyrimidin-4-yl}piperazine]"
